Measurements reported in patent US20250215010A1, “DIAZABICYCLOOCTANE DERIVATIVES USEFUL AS MATRIX METALLOPROTEINASE INHIBITORS” (VASA THERAPEUTICS SPOLKA Z OGRANICZONA ODPOWIEDZIALNOSCIA, priority 2022, published 2025).

How the values were obtained:
Type in all cases: biochemical
MMP9 = MMP9 (Homo sapiens, UniProt P14780); test: MMP-9 colorimetric inhibition assay (Enzo kit BML-AK410); conditions: thiopeptide substrate, absorbance 415 nm; read-out: MMP 9 IC50 class
Procedure, shortened: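 Colorimetric thioester-substrate assay: hydrolysis of Ac-PLG-[2-mercapto-4-methylpentanoyl]-LG-OC2H5 frees a thiol that reacts with DTNB, read at 415 nm. Run per kit protocol. IC50 (nM) taken from inhibition curves of normalized values.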

MMP2 = target: T1, MMP2 (Homo sapiens, UniProt P08253); test: MMP-2 colorimetric inhibition assay (Enzo kit BML-AK408); conditions: thiopeptide substrate, absorbance 415 nm; read-out: MMP 2 IC50 class
T1 sequence (P08253 110-660): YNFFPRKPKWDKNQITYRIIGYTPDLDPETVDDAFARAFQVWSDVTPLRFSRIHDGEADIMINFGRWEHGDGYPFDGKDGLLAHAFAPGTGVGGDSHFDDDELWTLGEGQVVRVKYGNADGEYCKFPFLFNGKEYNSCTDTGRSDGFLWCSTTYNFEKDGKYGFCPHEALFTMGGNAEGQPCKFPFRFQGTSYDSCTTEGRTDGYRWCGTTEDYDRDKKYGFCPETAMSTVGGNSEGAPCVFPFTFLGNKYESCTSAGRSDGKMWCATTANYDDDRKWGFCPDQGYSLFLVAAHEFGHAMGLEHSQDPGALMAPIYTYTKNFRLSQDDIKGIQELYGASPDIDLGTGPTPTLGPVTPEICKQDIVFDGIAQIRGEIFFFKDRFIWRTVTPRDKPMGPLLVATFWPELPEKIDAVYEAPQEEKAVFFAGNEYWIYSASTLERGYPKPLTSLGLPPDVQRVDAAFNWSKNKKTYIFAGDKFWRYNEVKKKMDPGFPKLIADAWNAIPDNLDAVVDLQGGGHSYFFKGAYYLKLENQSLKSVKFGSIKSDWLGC
Procedure, shortened: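 Cleavage of the thiopeptide Ac-PLG-[2-mercapto-4-methylpentanoyl]-LG-OC2H5 releases a sulfhydryl that reacts with DTNB, read at 415 nm per the kit protocol. IC50 values (nM) come from inhibition curves of normalized data.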

ADAM17 (TACE) = ADAM17 (TACE) (Homo sapiens, UniProt P78536); test: TACE fluorometric inhibition assay (Enzo kit BML-AK310); conditions: quenched fluorogenic peptide, ex/em 320/420 nm; read-out: TACE IC50 class
Chain of ADAM17 (TACE) (P78536 215-477 limits assumed): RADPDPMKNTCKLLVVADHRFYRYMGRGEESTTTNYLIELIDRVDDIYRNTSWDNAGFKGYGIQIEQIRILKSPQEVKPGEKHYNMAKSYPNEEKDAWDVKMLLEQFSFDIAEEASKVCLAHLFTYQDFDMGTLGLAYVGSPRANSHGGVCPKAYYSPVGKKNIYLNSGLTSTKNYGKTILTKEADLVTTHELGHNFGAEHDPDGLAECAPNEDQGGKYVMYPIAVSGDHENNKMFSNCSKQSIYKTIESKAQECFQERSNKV
Procedure, shortened: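 Kit-based TACE assay run per manufacturer's protocol, using quenched fluorogenic peptide Mca-PLAQAV-Dpa-RSSSR-NH2 whose cleavage raises Mca fluorescence. Signal read at ex/em 320/420 nm; IC50 (nM) derived from inhibition curves of normalized values.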

MMP1 = target: T2, MMP1 (Homo sapiens, UniProt P03956); test: MMP-1 colorimetric inhibition assay (Enzo kit BML-AK404); conditions: thiopeptide substrate, absorbance 415 nm; read-out: MMP 1 IC50 class
T2 sequence (P03956 100-269 limits assumed): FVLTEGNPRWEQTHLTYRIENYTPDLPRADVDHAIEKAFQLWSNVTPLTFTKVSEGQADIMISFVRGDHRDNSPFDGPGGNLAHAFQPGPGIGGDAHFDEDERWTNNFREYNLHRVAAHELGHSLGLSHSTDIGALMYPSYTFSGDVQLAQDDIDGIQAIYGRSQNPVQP
Procedure, shortened: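 Colorimetric kit run per manufacturer protocol. MMP-1 cleaves a thiopeptide substrate (Ac-PLG-[2-mercapto-4-methylpentanoyl]-LG-OC2H5); released thiol reacts with DTNB, monitored at 415 nm. IC50 (nM) from inhibition curves of normalized values.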

ADAM10 = target: T3, ADAM10 (Homo sapiens, UniProt O14672); test: SensoLyte 520 ADAM10 fluorometric activity assay (AnaSpec AS-72226); conditions: FRET peptide substrate, ex/em 495/520 nm; read-out: ADAM 10 IC50 class
T3 construct: purchased AnaSpec, Inc. AS-72226
T3 sequence (O14672 214-748): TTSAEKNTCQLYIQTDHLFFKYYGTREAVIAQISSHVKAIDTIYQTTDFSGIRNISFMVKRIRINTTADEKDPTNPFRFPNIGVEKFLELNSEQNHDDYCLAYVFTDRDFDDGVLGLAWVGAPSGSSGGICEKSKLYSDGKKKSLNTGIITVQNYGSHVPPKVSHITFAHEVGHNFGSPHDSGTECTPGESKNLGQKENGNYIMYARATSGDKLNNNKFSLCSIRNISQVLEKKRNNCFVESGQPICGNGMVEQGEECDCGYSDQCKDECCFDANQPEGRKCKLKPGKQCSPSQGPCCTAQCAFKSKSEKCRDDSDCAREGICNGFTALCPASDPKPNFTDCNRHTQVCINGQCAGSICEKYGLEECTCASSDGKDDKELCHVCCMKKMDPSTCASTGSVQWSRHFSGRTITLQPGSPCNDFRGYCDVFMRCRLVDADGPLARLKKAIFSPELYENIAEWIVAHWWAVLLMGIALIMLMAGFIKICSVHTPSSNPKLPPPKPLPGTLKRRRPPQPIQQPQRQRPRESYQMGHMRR
Procedure, shortened: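 ADAM10 activity was read by cleavage of a FRET peptide substrate (5-FAM/QXL 520), run per the kit protocol, with fluorescence at 495/520 nm. IC50 values (nM) came from inhibition curves of normalized data.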

MMP13 = target: T4, MMP13 (Homo sapiens, UniProt P45452); test: MMP-13 colorimetric inhibition assay (Enzo kit BML-AK412); conditions: thiopeptide substrate, absorbance 415 nm; read-out: MMP 13 IC50 class
T4 construct: purchased Enzo Life Sciences, Inc. BML-AK412
Procedure, shortened: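 Thiopeptide chromogenic substrate (Ac-PLG-[2-mercapto-4-methylpentanoyl]-LG-OC2H5); MMP-13 hydrolysis of the thioester yields a thiol that reacts with DTNB, read at 415 nm. IC50 values (nM) derived from inhibition curves of normalized data.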

Chain of MMP9 (P14780 94-707): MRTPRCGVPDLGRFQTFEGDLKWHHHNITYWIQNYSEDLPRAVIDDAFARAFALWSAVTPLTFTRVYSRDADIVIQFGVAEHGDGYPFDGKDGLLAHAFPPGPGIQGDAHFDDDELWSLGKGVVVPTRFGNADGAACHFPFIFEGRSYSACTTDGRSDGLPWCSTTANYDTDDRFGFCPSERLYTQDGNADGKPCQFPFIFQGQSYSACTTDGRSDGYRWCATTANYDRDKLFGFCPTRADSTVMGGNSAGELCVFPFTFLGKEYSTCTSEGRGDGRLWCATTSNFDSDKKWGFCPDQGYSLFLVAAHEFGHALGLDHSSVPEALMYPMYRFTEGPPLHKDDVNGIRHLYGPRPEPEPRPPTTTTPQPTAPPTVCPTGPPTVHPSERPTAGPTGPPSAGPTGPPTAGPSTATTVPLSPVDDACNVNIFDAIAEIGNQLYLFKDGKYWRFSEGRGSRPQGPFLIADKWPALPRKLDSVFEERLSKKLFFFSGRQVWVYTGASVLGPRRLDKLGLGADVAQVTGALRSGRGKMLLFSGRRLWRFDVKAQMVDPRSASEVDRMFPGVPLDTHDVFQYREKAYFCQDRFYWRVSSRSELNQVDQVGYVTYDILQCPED

Compound: COc1ccc(Oc2ccc(S(=O)(=O)N3C[C@H]4CC[C@@H]([C@@H]3C(=O)NO)N4C(=O)N3CCOCC3)cn2)cc1F [Example 73, (1S,2R,5R)-3-((6-(3-fluoro-4-methoxy-phenoxy)pyridin-3-yl)-sulfonyl)-N-hydroxy-8-(morpholine-4-carbonyl)-3,8-diazabicyclo[3.2.1]-octane-2-carboxamide]
- IC50 (MMP9): < 50 nM
- IC50 (MMP2): < 50 nM
- IC50 (ADAM17 (TACE)): 1000 to 10000 nM
- IC50 (MMP1): > 10000 nM
- IC50 (ADAM10): 1000 to 10000 nM
- IC50 (MMP13): < 50 nM
